The source of these data is article PMC4330097, “Competitive Binding of a Benzimidazole to the Histone-Binding Pocket of the Pygo PHD Finger” (ACS Chemical Biology, 2014).

No end group written: not given here. Me2 = dimethyl on the lysine side chain (dimethyllysine)

The target of assay [1] is T1, Pygo2 PHD finger (PHD–HD1 complex) (Homo sapiens, UniProt Q9BRQ0).
T1 sequence (Q9BRQ0 327-387): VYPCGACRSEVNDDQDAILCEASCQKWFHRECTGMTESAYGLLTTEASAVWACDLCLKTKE
T1 sequence (Q86UU0 235-263 partner): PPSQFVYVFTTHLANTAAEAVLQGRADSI
Briefly: HSQC NMR titration, intermolecular NOEs, NMR competition with H3 peptide. Format: binding. On the set-up: with B9L HD1 (BCL9L). From the text: HSQC NMR titration, intermolecular NOEs, NMR competition with H3 peptide on Pygo2 PHD finger (PHD–HD1 complex) | estimated affinities of CF16 and CF18 for the K4me pocket appear to be lower

Assay [2] concerns the target T1, Pygo2 PHD finger (PHD–HD1 complex). Briefly: HSQC NMR chemical shift perturbation. The assay is classed as binding. More on the design: PHD–HD1 complex; with B9L HD1 (BCL9L).
Assay [3] has the same target. Briefly: HSQC NMR titration, intermolecular NOEs. More on the design: with B9L HD1 (BCL9L). The assay is classed as binding.
For assay [4] the target is unchanged. Briefly: biochemical. More on the design: PHD–HD1 complex; with B9L HD1 (BCL9L); 15N-HSQC NMR titration of 15N-labelled PHD-HD1; Kd from chemical shift perturbations. From the text: […]. […] Nevertheless, we asked whether CF16 could compete with a native histone H3 tail peptide for binding to the PHD–HD1 complex.
In assay [5] the target is T2, histone H3 tail pentapeptide ARTKme2Q (Homo sapiens).
T2 chain: ARTK(Me2)Q
Briefly: NMR HSQC titration.

In assay [1], `CCn1c(N)nc2ccccc21` [CF16] showed a Kd of approximately 7.3 mM.

`CCn1c(NCCN2CCOCC2)nc2ccccc21` [CF17]: the “HSQC NMR chemical shift perturbation” value in assay [2] was “CF14, CF16, and CF17 produced altogether distinct CSP patterns”.

In assay [3], `CN(C)CCn1c(N)nc2ccccc21` [CF18] displayed a Kd of approximately 14.7 mM.

For the molecule `Nc1nc2cc3c(cc2s1)OCCO3` [CF7], the Kd in assay [4] stood at 2.9 mM.

B1: Pygo2 PHD–B9L HD1 complex 327-387+235-263 (protein)
chain 1: AASAPPPPDKLEGGGGPAPPPAPPSTGRKQGKAGLQMKSPEKKRRKSNTQGPAYSHLTEFAPPPTPMVDHLVASNPFEDDFGAPKVGVAAPPFLGSPVPFGGFRVQGGMAGQVPPGYSTGGGGGPQPLRRQPPPFPPNPMGPAFNMPPQGPGYPPPGNMNFPSQPFNQPLGQNFSPPSGQMMPGPVGGFGPMISPTMGQPPRAELGPPSLSQRFAQPGAPFGPSPLQRPGQGLPSLPPNTSPFPGPDPGFPGPGGEDGGKPLNPPASTAFPQEPHSGSPAAAVNGNQPSFPPNSSGRGGGTPDANSLAPPGKAGGGSGPQPPPGLVYPCGACRSEVNDDQDAILCEASCQKWFHRECTGMTESAYGLLTTEASAVWACDLCLKTKEIQSVYIREGMGQLVAANDG
chain 2: MRILANKTRLPHPRRREAPGSPPLSPRGHCPPAPAKPMHPENKLTNHGKTGNGGAQSQHQNVNQGPTCNVGSKGVGAGNHGAKANQISPSNSSLKNPQAGVPPFSSLKGKVKRDRSVSVDSGEQREAGTPSLDSEAKEVAPRSKRRCVLERKQPYSGDEWCSGPDSEEDDKPIGATHNCNVADPAMAAPQLGPGQTTQLPLSESSVPGAPHGPPPGLRPDAPGGGGGGGGVPGKPPSQFVYVFTTHLANTAAEAVLQGRADSILAYHQQNVPRAKLDQAPKVPPTPEPLPLSTPSAGTPQSQPPPLPPPPPPAPGSAPPALPPEGPPEDSSQDLAPNSVGAASTGGGTGGTHPNTPTATTANNPLPPGGDPSSAPGPALLGEAAAPGNGQRSLVGSEGLSKEQLEHRERSLQTLRDIERLLLRSGETEPFLKGPPGGAGEGGPPAQAPPPPQQPPTAPPSGLKKYEEPLQSMISQTQSLGGPPLEHEVPGHPPGGDMGQQMNMMIQRLGQDSLTPEQVAWRKLQEEYYEEKRRKEEQIGLHGSRPLQDMMGMGGMMVRGPPPPYHSKPGDQWPPGMGAQLRGPMDVQDPMQLRGGPPFPGPRFPGNQIQRVPGFGGMQSMPMEVPMNAMQRPVRPGMGWTEDLPPMGGPSNFAQNTMPYPGGQGEAERFMTPRVREELLRHQLLEKRSMGMQRPLGMAGSGMGQSMEMERMMQAHRQMDPAMFPGQMAGGEGLAGTPMGMEFGGGRGLLSPPMGQSGLREVDPPMGPGNLNMNMNVNMNMNMNLNVQMTPQQQMLMSQKMRGPGDLMGPQGLSPEEMARVRAQNSSGVMGGPQKMLMPSQFPNQGQQGFSGGQGPYQAMSQDMGNTQDMFSPDQSSMPMSNVGTTRLSHMPLPPASNPPGTVHSAPNRGLGRRPSDLTISINQMGSPGMGHLKSPTLSQVHSPLVTSPSANLKSPQTPSQMVPLPSANPPGPLKSPQVLGSSLSVRSPTGSPSRLKSPSMAVPSPGWVASPKTAMPSPGVSQNKQPPLNMNSSTTLSNMEQGTLPPSGPRSSSSAPPANPPSGLMNPSLPFTSSPDPTPSQNPLSLMMTQMSKYAMPSSTPLYHNAIKTIATSDDELLPDRPLLPPPPPPQGSGPGISNSQPSQMHLNSAAAQSPMGMNLPGQQPLSHEPPPAMLPSPTPLGSNIPLHPNAQGTGGPPQNSMMMAPGGPDSLNAPCGPVPSSSQMMPFPPRLQQPHGAMAPTGGGGGGPGLQQHYPSGMALPPEDLPNQPPGPMPPQQHLMGKAMAGRMGDAYPPGVLPGVASVLNDPELSEVIRPTPTGIPEFDLSRIIPSEKPSSTLQYFPKSENQPPKAQPPNLHLMNLQNMMAEQTPSRPPNLPGQQGVQRGLNMSMCHPGQMSLLGRTGVPPQQGMVPHGLHQGVMSPPQGLMTQQNFMLMKQRGVGGEVYSQPPHMLSPQGSLMGPPPQQNLMVSHPLRQRSVSLDSQMGYLPAPGGMANLPF
In turn, B1 gave a Kd in assay [5] of 0.528 mM.
